Data reported in the supplement of paper PMC11451515.

System: P12-Ichikawa
Assay: cell viability relative to DMSO control; higher = less cytotoxic
Conditions: 48 h
Procedure, shortened: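 Leukemia cells (NOMO1 or SEM, 500 cells/well; P12-Ichikawa, 1000 cells/well) were seeded in 5 μl in 1536-well plates after at least four passages of adaptation to each medium. They received library compounds in DMSO by pin dosing, 11 threefold points from 47 μM to 0.79 nM. Luminescence with CellTiter-Glo One was read after 48 h at 37°C. Viability is stated per plate relative to DMSO wells, with cell-free wells as background.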

[1] = HPLM + 10% dialyzed FBS, 0.000781 µM
[2] = HPLM + 10% dialyzed FBS, 0.00234 µM
[3] = HPLM + 10% dialyzed FBS, 0.00702 µM
[4] = HPLM + 10% dialyzed FBS, 0.0211 µM
[5] = HPLM + 10% dialyzed FBS, 0.0632 µM
[6] = HPLM + 10% dialyzed FBS, 0.19 µM
[7] = HPLM + 10% dialyzed FBS, 0.569 µM
[8] = HPLM + 10% dialyzed FBS, 1.71 µM
[9] = HPLM + 10% dialyzed FBS, 5.12 µM
[10] = HPLM + 10% dialyzed FBS, 15.4 µM
[11] = HPLM + 10% dialyzed FBS, 46.1 µM
[12] = RPMI 5 mM glucose + 10% FBS, 0.000781 µM
[13] = RPMI 5 mM glucose + 10% FBS, 0.00234 µM
[14] = RPMI 5 mM glucose + 10% FBS, 0.00702 µM
[15] = RPMI 5 mM glucose + 10% FBS, 0.0211 µM
[16] = RPMI 5 mM glucose + 10% FBS, 0.0632 µM
[17] = RPMI 5 mM glucose + 10% FBS, 0.19 µM
[18] = RPMI 5 mM glucose + 10% FBS, 0.569 µM
[19] = RPMI 5 mM glucose + 10% FBS, 1.71 µM
[20] = RPMI 5 mM glucose + 10% FBS, 5.12 µM
[21] = RPMI 5 mM glucose + 10% FBS, 15.4 µM
[22] = RPMI 5 mM glucose + 10% FBS, 46.1 µM
[23] = RPMI 5 mM glucose + 10% dialyzed FBS, 0.000781 µM
[24] = RPMI 5 mM glucose + 10% dialyzed FBS, 0.00234 µM
[25] = RPMI 5 mM glucose + 10% dialyzed FBS, 0.00702 µM
[26] = RPMI 5 mM glucose + 10% dialyzed FBS, 0.0211 µM
[27] = RPMI 5 mM glucose + 10% dialyzed FBS, 0.0632 µM
[28] = RPMI 5 mM glucose + 10% dialyzed FBS, 0.19 µM
[29] = RPMI 5 mM glucose + 10% dialyzed FBS, 0.569 µM
[30] = RPMI 5 mM glucose + 10% dialyzed FBS, 1.71 µM
[31] = RPMI 5 mM glucose + 10% dialyzed FBS, 5.12 µM
[32] = RPMI 5 mM glucose + 10% dialyzed FBS, 15.4 µM
[33] = RPMI 5 mM glucose + 10% dialyzed FBS, 46.1 µM

Structure (SMILES)	cell viability [1]	cell viability [2]	cell viability [3]	cell viability [4]	cell viability [5]	cell viability [6]	cell viability [7]	cell viability [8]	cell viability [9]	cell viability [10]	cell viability [11]	cell viability [12]	cell viability [13]	cell viability [14]	cell viability [15]	cell viability [16]	cell viability [17]	cell viability [18]	cell viability [19]	cell viability [20]	cell viability [21]	cell viability [22]	cell viability [23]	cell viability [24]	cell viability [25]	cell viability [26]	cell viability [27]	cell viability [28]	cell viability [29]	cell viability [30]	cell viability [31]	cell viability [32]	cell viability [33]
CCCCCN(CCC12CC3CC(CC(C3)C1)C2)C(=O)NCCCc1ccncc1	113%	112%	110%	114%	115%	104%	109%	108%	104%	97.1%	97.8%	101%	109%	112%	107%	107%	105%	111%	106%	109%	92.7%	99.1%	115%	110%	109%	118%	114%	114%	109%	113%	105%	101%	98.9%
COC(=O)C/1=C(C)/N/C(=C(\C1C2=CC(=CC=C2)[N+]([O-])=O)C(=O)OCCCN3CCC(CC3)(C4=CC=CC=C4)C5=CC=CC=C5)C (centres undefined)	109%	101%	104%	101%	106%	101%	96.1%	107%	97.3%	92.6%	95%	107%	103%	107%	81.4%	95.7%	95.3%	98.4%	89.6%	89.6%	92.4%	93%	103%	102%	99.3%	88.3%	98.8%	95%	91.4%	94.9%	94%	94.4%	94.6%
C=CC(=O)Nc1ccc2ncnc(Nc3ccc(OCc4cccc(F)c4)c(Cl)c3)c2c1	97%	111%	104%	105%	113%	109%	97.2%	105%	85.1%	10.7%	10.7%	97.3%	105%	109%	105%	110%	107%	118%	103%	83.1%	13.4%	12.3%	97.1%	111%	117%	122%	111%	118%	116%	107%	81%	21.4%	16.4%
CC1=C(/C=C/C(C)=C/C=C/C(C)=C/C(=O)O)C(C)(C)CCC1	116%	125%	121%	121%	127%	119%	132%	126%	123%	111%	104%																						
Oc1ccc([C@@H]2Oc3ccc(O)cc3[C@@H]3CCC[C@@H]32)cc1	86.9%	90.2%	94.7%	93.5%	92.7%	95.1%	94.3%	90.5%	87.4%	40.6%	12.2%	88.5%	82.6%	92.7%	88.7%	90%	87%	85.5%	85.4%	82.3%	34.1%	12%	76.8%	80.7%	87.2%	85.6%	82.8%	76.6%	82.4%	76.5%	72.8%	44.6%	14.4%
C[N]1C=C(C=N1)C2=CC=C3N=CC\4=C(N(C(=O)\C=C4)C5=CC6=C(CCN6C(=O)C=C)C=C5)C3=C2	106%	121%	109%	114%	112%	115%	105%	95.4%	79.9%	20.8%	20.4%	123%	112%	118%	114%	110%	113%	111%	98%	74.6%	7.13%	5.07%	116%	128%	117%	120%	115%	126%	119%	98.4%	82.2%	6.85%	4.97%
Cc1ccc([S+](=O)([O-])Nc2cc(Cl)ccc2C(=O)Nc2nc(-c3ccccc3)cs2)cc1																							124%	130%	117%	123%	128%	119%	117%	116%	114%	101%	26.6%
Oc1ccc(-c2ccc(-c3cc(Nc4cccc(CNC5CC5)c4)[nH]n3)cc2)c(O)c1	104%	103%	112%	104%	96.1%	112%	104%	92.3%	32.2%	38%	64.1%	99.4%	98.1%	115%	114%	98.5%	116%	108%	89%	23.2%	13.5%	23.4%	101%	114%	105%	125%	111%	112%	104%	101%	58.8%	32.9%	43.2%
N#Cc1ccnc(N2C(=O)CC[C@H]2C(=O)N(c2cncc(F)c2)[C@H](C(=O)NC2CC(F)(F)C2)c2ccccc2Cl)c1	91.1%	95.2%	93.7%	95.4%	94.9%	97%	74.8%	48.3%	10.1%	10.1%	15.5%	88%	90.2%	95.4%	93.1%	90.5%	90.5%	80.5%	71.5%	25.4%	16.2%	7.62%	95.5%	89.9%	88.5%	96.7%	97.5%	95.6%	85%	83.7%	35.6%	26.2%	18.8%
Cc1cnc(Nc2ccc(CN3CCOCC3)cc2)nc1Nc1cccc([S+](=O)([O-])NC(C)(C)C)c1	80%	81.1%	81.2%	82.7%	89.1%	80.3%	83.6%	77.3%	9.27%	3.06%	1.03%	81.2%	83.3%	83.8%	84.9%	87.7%	74.2%	67.9%	76.2%	22.9%	5.69%	3.76%	69.9%	84.2%	74.6%	81.3%	81%	72.6%	75%	71.6%	31.2%	6.47%	5.08%
N=C(N)Nc1ccc(C(=O)Oc2ccc3cc(C(=N)N)ccc3c2)cc1	88.3%	104%	98.8%	92.5%	103%	95.5%	88.6%	83.9%	87.9%	87.4%	72.3%	96.4%	93%	99.4%	90.5%	102%	95.9%	91.1%	97%	88.4%	95.7%	52%	83.8%	92.3%	86.5%	83.4%	89.5%	85%	86.7%	87.1%	85.1%	83.7%	53%
NNc1nncc2ccccc12	112%	121%	127%	122%	126%	131%	121%	134%	129%	124%	130%																						
O=C(NCc1ccccc1)c1csc(Nc2ccncn2)n1	91%	95.5%	100%	110%	105%	108%	103%	85.2%	62.9%	5.82%	1.69%	94%	96.1%	92.9%	104%	106%	94.5%	104%	63.7%	37.6%	5.79%	2.56%	93.4%	101%	104%	112%	106%	97.2%	102%	80.6%	36%	6.99%	2.78%
CN1CCN(CCCN2c3ccccc3Sc3ccc(Cl)cc32)CC1.O=C(O)/C=C\C(=O)O.O=C(O)/C=C\C(=O)O	108%	108%	105%	105%	106%	107%	114%	99%	108%	36.1%	34.8%	119%	110%	125%	126%	119%	137%	122%	112%	114%	29.5%	31.2%	106%	105%	106%	108%	116%	112%	111%	110%	104%	28.1%	32.1%
CN(C)CCc1c[nH]c2ccc(C[S+](=O)([O-])N3CCCC3)cc12	104%	105%	110%	114%	114%	113%	114%	111%	107%	110%	84.4%	106%	110%	110%	116%	109%	115%	118%	111%	111%	99.8%	87.5%	97.1%	101%	108%	106%	113%	107%	117%	113%	104%	96%	84.2%
Cc1cccc(-c2[nH]c(C(C)(C)C)nc2-c2ccc3c(c2)OCO3)n1	105%	109%	110%	107%	102%	105%	110%	105%	100%	17.5%	11.1%	98.4%	102%	92.8%	106%	96.9%	97%	94.1%	96.2%	98.6%	14%	8.01%	102%	112%		108%	101%	101%	106%	95.9%	96%	37.1%	19.6%
CC(C)[N+]1(C)C2CCC1CC(OC(=O)C(CO)c1ccccc1)C2.O.[Br-] (centres undefined)	98.5%	111%	116%	112%	123%	124%	123%	109%	50%	14.1%	7.93%	125%	123%	129%	126%	128%	125%	137%	132%	127%	52.5%	13.8%	113%	113%	119%	117%	124%	112%	118%	115%	102%	34%	19.3%
